Reference: patent US20240208992A1, “MACROCYCLES AS CFTR MODULATORS” (Idorsia Pharmaceuticals Ltd, priority 2021, published 2024)

Biological target: human F508del-CFTR (Homo sapiens, UniProt P13569, DEL508-508)
Experiment: F508del-CFTR cell surface expression (corrector activity), DiscoveRx ß-galactosidase complementation chemiluminescence assay in recombinant U2OS cell line;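 also: U2OS cells co-expressing ProLink-tagged F508del-CFTR and a membrane-anchored enzyme acceptor, where more surface CFTR restores β-galactosidase activity measured by chemiluminescence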
Settings: U2OS cell line, 16h compound incubation; for EC50: EC50, F508del-CFTR cell surface expression, geomean values; for Emax: U2OS, in relation to the Emax of the corrector lumacaftor (=100%), arithmetic mean values

Chain of human F508del-CFTR (P13569 with tags, fused parts or gaps DEL508-508): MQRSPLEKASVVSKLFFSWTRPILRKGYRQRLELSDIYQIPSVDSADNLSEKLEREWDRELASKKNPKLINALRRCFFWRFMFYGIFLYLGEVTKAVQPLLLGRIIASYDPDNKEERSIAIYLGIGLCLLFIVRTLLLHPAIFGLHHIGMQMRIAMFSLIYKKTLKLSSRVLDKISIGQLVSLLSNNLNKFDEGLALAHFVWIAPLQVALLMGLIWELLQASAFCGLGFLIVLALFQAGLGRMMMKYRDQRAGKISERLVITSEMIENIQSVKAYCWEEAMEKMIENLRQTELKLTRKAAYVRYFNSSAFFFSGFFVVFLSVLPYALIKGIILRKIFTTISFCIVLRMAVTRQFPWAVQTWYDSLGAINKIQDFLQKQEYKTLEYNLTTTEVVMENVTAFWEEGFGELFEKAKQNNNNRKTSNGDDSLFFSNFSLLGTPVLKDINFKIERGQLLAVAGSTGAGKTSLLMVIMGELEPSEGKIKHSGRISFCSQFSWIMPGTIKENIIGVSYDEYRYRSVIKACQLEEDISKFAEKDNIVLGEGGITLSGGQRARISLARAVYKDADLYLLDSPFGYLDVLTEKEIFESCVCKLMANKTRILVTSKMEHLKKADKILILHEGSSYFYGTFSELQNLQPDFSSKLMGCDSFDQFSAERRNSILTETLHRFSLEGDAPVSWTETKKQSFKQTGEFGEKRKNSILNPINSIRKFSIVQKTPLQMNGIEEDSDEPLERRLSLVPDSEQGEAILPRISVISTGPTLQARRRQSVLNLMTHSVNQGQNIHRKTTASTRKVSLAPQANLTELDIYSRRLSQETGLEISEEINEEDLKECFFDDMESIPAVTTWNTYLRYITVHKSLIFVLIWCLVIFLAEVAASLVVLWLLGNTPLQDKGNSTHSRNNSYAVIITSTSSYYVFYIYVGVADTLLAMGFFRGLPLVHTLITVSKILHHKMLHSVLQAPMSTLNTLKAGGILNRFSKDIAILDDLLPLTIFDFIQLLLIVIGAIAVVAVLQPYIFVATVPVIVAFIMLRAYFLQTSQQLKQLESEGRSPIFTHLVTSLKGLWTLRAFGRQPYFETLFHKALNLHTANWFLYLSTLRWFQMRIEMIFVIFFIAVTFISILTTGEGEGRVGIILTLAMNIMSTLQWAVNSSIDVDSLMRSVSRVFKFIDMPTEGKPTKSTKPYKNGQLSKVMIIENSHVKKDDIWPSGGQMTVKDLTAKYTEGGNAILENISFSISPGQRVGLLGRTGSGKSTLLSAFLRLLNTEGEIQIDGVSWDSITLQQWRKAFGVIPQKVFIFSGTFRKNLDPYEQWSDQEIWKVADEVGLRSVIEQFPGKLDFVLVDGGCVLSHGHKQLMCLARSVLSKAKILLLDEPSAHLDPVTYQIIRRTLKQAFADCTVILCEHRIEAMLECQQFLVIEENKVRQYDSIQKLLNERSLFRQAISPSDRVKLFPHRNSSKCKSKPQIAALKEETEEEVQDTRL

Row | SMILES | EC50 | Emax
1 | COc1cc(CCNC(=O)[C@@H]2CC(=O)N(C)[C@@H](CC(C)C)C(=O)N3CCCC[C@@H]3C(=O)N[C@H](Cc3ccccc3)COc3cnc4ccccc4c3C(=O)N2)ccc1-n1nccn1 [Example 93, (9S,13S,19aR,22R)-22-benzyl-13-isobutyl-N-(3-methoxy-4-(2H-1,2,3-triazol-2-yl)phenethyl)-12-methyl-7,11,14,20-tetraoxo-7,8,9,10,11,12,13,14,17,18,19,19a,20,21,22,23-hexadecahydro-16H-pyrido[2′,1′:6,7][1]oxa[4,7,10,14]tetraazacycloheptadecino[17,16-c]quinoline-9-carboxamide] | 777 nM | 189%
2 | CC(C)C[C@H]1C(=O)N2CCCC[C@@H]2C(=O)N[C@H](Cc2ccccc2)COc2cnc3ccccc3c2C(=O)N[C@H](C(=O)NCCc2ccc(F)cc2F)CC(=O)N1C [Example 94, (9S,13S,19aR,22R)-22-benzyl-N-(2,4-difluorophenethyl)-13-isobutyl-12-methyl-7,11,14,20-tetraoxo-7,8,9,10,11,12,13,14,17,18,19,19a,20,21,22,23-hexadecahydro-16H-pyrido[2′,1′:6,7][1]oxa[4,7,10,14]tetraazacycloheptadecino[17,16-c]quinoline-9-carboxamide] | 257 nM | 201%
3 | COc1ccc(CCNC(=O)[C@@H]2CC(=O)N(C)[C@@H](CC(C)C)C(=O)N3CCCC[C@@H]3C(=O)N[C@H](Cc3ccccc3)COc3cnc4ccccc4c3C(=O)N2)cc1C [Example 95, (9S,13S,19aR,22R)-22-benzyl-13-isobutyl-N-(4-methoxy-3-methylphenethyl)-12-methyl-7,11,14,20-tetraoxo-7,8,9,10,11,12,13,14,17,18,19,19a,20,21,22,23-hexadecahydro-16H-pyrido[2′,1′:6,7][1]oxa[4,7,10,14]tetraazacycloheptadecino[17,16-c]quinoline-9-carboxamide] | 250 nM | 178%
4 | Cc1cccc(CCNC(=O)[C@@H]2CC(=O)N(C)[C@@H](CC(C)C)C(=O)N3CCCC[C@@H]3C(=O)N[C@H](Cc3ccccc3)COc3cnc4ccccc4c3C(=O)N2)c1 [Example 96, (9S,13S,19aR,22R)-22-benzyl-13-isobutyl-12-methyl-N-(3-methylphenethyl)-7,11,14,20-tetraoxo-7,8,9,10,11,12,13,14,17,18,19,19a,20,21,22,23-hexadecahydro-16H-pyrido[2′,1′:6,7][1]oxa[4,7,10,14]tetraazacycloheptadecino[17,16-c]quinoline-9-carboxamide] | 425 nM | 206%
5 | CC(C)C[C@H]1C(=O)N2CCCC[C@@H]2C(=O)N[C@H](Cc2ccccc2)COc2cnc3ccccc3c2C(=O)N[C@H](C(=O)NCCc2c(F)cc(Br)cc2F)CC(=O)N1C [Example 99, (9S,13S,19aR,22R)-22-benzyl-N-(4-bromo-2,6-difluorophenethyl)-13-isobutyl-12-methyl-7,11,14,20-tetraoxo-7,8,9,10,11,12,13,14,17,18,19,19a,20,21,22,23-hexadecahydro-16H-pyrido[2′,11:6,7][1]oxa[4,7,10,14]tetraazacycloheptadecino[17,16-c]quinoline-9-carboxamide] | 205 nM | 254%
6 | COc1ccc(CCNC(=O)[C@@H]2CC(=O)N(C)[C@@H](CC(C)C)C(=O)N3CCCC[C@@H]3C(=O)N[C@H](Cc3ccccc3)COc3cnc4ccccc4c3C(=O)N2)cc1F [Example 100, (9S,13S,19aR,22R)-22-benzyl-N-(3-fluoro-4-methoxyphenethyl)-13-isobutyl-12-methyl-7,11,14,20-tetraoxo-7,8,9,10,11,12,13,14,17,18,19,19a,20,21,22,23-hexadecahydro-16H-pyrido[2′,11:6,7][1]oxa[4,7,10,14]tetraazacycloheptadecino[17,16-c]quinoline-9-carboxamide] | 184 nM | 273%
7 | CC(C)C[C@H]1C(=O)N(C)CC(=O)N[C@H](Cc2ccccc2)COc2cc3c(cc2C(=O)N[C@H](C(=O)NCCc2ccc4c(c2)OCCCO4)CC(=O)N1C)OCO3 [Example 101, (7R,13S,17S)-7-benzyl-N-(2-(3,4-dihydro-2H-benzo[b][1,4]dioxepin-7-yl)ethyl)-13-isobutyl-11,14-dimethyl-9,12,15,19-tetraoxo-6,7,8,9,10,11,12,13,14,15,16,17,18,19-tetradecahydro-[1,3]dioxolo[4′,5′:4,5]benzo[1,2-p][1]oxa[4,7,10,14]tetraazacycloheptadecine-17-carboxamide] | 201 nM | 163%
8 | Cc1ccc(F)c(CCNC(=O)[C@@H]2CC(=O)N(C)[C@@H](CC(C)C)C(=O)N3CCCC[C@@H]3C(=O)N[C@H](Cc3ccccc3)COc3cnc4ccccc4c3C(=O)N2)c1F [Example 102, (9S,13S,19aR,22R)-22-benzyl-N-(2,6-difluoro-3-methylphenethyl)-13-isobutyl-12-methyl-7,11,14,20-tetraoxo-7,8,9,10,11,12,13,14,17,18,19,19a,20,21,22,23-hexadecahydro-16H-pyrido[2′,11:6,7][1]oxa[4,7,10,14]tetraazacycloheptadecino[17,16-c]quinoline-9-carboxamide] | 225 nM | 332%
9 | CC(C)C[C@H]1C(=O)N2CCOC[C@@H]2C(=O)N[C@H](Cc2ccccc2)COc2cnc3ccccc3c2C(=O)N[C@H](C(=O)NCCc2cc(C3CC3)on2)CC(=O)N1C [Example 106, (9S,13S,19aR,22R)-22-benzyl-N-(2-(5-cyclopropylisoxazol-3-yl)ethyl)-13-isobutyl-12-methyl-7,11,14,20-tetraoxo-7,8,9,10,11,12,13,14,16,17,19,19a,20,21,22,23-hexadecahydro-[1,4]oxazino[3′,4′:6,7][1]oxa[4,7,10,14]tetraazacycloheptadecino[17,16-c]quinoline-9-carboxamide] | 864 nM | 308%
10 | CC(C)C[C@H]1C(=O)N2CCOC[C@@H]2C(=O)N[C@H](Cc2ccccc2)COc2cnc3ccccc3c2C(=O)N[C@H](C(=O)NCCc2cc(C(C)(C)C)on2)CC(=O)N1C [Example 107, (9S,13S,19aR,22R)-22-benzyl-N-(2-(5-(tert-butyl)isoxazol-3-yl)ethyl)-13-isobutyl-12-methyl-7,11,14,20-tetraoxo-7,8,9,10,11,12,13,14,16,17,19,19a,20,21,22,23-hexadecahydro-[1,4]oxazino[3′,4′:6,7][1]oxa[4,7,10,14]tetraazacycloheptadecino[17,16-c]quinoline-9-carboxamide] | 794 nM | 257%

Next, values leading:

Row | EC50 | Emax | SMILES
11 | 289 nM | 256% | Cc1ccc(F)c(CCNC(=O)[C@@H]2CC(=O)N(C)[C@@H](CC(C)C)C(=O)N3CCCC[C@@H]3C(=O)N[C@H](Cc3ccccc3)COc3cnc4ccccc4c3C(=O)N2)c1 [Example 92, (9S,13S,19aR,22R)-22-benzyl-N-(2-fluoro-5-methylphenethyl)-13-isobutyl-12-methyl-7,11,14,20-tetraoxo-7,8,9,10,11,12,13,14,17,18,19,19a,20,21,22,23-hexadecahydro-16H-pyrido[2′,1′:6,7][1]oxa[4,7,10,14]tetraazacycloheptadecino[17,16-c]quinoline-9-carboxamide]
12 | 146 nM | 285% | CC(C)C[C@H]1C(=O)N2CCCC[C@@H]2C(=O)N[C@H](Cc2ccccc2)COc2cnc3ccccc3c2C(=O)N[C@H](C(=O)NCCc2cccc(F)c2F)CC(=O)N1C [Example 97, (9S,13S,19aR,22R)-22-benzyl-N-(2,3-difluorophenethyl)-13-isobutyl-12-methyl-7,11,14,20-tetraoxo-7,8,9,10,11,12,13,14,17,18,19,19a,20,21,22,23-hexadecahydro-16H-pyrido[2′,1′:6,7][1]oxa[4,7,10,14]tetraazacycloheptadecino[17,16-c]quinoline-9-carboxamide]
13 | 311 nM | 326% | Cc1cc(CCNC(=O)[C@@H]2CC(=O)N(C)[C@@H](CC(C)C)C(=O)N3CCCC[C@@H]3C(=O)N[C@H](Cc3ccccc3)COc3cnc4ccccc4c3C(=O)N2)no1 [Example 98, (9S,13S,19aR,22R)-22-benzyl-13-isobutyl-12-methyl-N-(2-(5-methylisoxazol-3-yl)ethyl)-7,11,14,20-]
14 | 499 nM | 256% | CC(C)C[C@H]1C(=O)N2CCCC[C@@H]2C(=O)N[C@H](Cc2ccccc2)COc2cnc3ccccc3c2C(=O)N[C@H](C(=O)NCCc2ccns2)CC(=O)N1C [Example 103, (9S,13S,19aR,22R)-22-benzyl-13-isobutyl-N-(2-(isothiazol-5-yl)ethyl)-12-methyl-7,11,14,20-tetraoxo-7,8,9,10,11,12,13,14,17,18,19,19a,20,21,22,23-hexadecahydro-16H-pyrido[2′,1′:6,7][1]oxa[4,7,10,14]tetraazacycloheptadecino[17,16-c]quinoline-9-carboxamide]
15 | 211 nM | 204% | Cc1cccc(F)c1CCNC(=O)[C@@H]1CC(=O)N(C)[C@@H](CC(C)C)C(=O)N2CCCC[C@@H]2C(=O)N[C@H](Cc2ccccc2)COc2cnc3ccccc3c2C(=O)N1 [Example 104, (9S,13S,19aR,22R)-22-benzyl-N-(2-fluoro-6-methylphenethyl)-13-isobutyl-12-methyl-7,11,14,20-tetraoxo-7,8,9,10,11,12,13,14,17,18,19,19a,20,21,22,23-hexadecahydro-16H-pyrido[2′,11:6,7][1]oxa[4,7,10,14]tetraazacycloheptadecino[17,16-c]quinoline-9-carboxamide]
16 | 173 nM | 351% | CC(C)C[C@H]1C(=O)N2CCCC[C@@H]2C(=O)N[C@H](Cc2ccccc2)COc2cnc3ccccc3c2C(=O)N[C@H](C(=O)NCCc2cc(C3CC3)on2)CC(=O)N1C [Example 105, (9S,13S,19aR,22R)-22-benzyl-N-(2-(5-cyclopropylisoxazol-3-yl)ethyl)-13-isobutyl-12-methyl-7,11,14,20-tetraoxo-7,8,9,10,11,12,13,14,17,18,19,19a,20,21,22,23-hexadecahydro-16H-pyrido[2′,1′:6,7][1]oxa[4,7,10,14]tetraazacycloheptadecino[17,16-c]quinoline-9-carboxamide]
